“Also recorded” adds a separate entry of the source. Read-outs that look alike come from different tables or passages of the source.
Columns and labels:
liver CYP1A [1] = tested on: liver CYP1A
Description: (§3) Nude mice were sacrificed by decapitation. The skin and liver were immediately removed and kept in ice bath or 4° C. […] Connective tissue, blood, and fat were carefully removed from the tissue. Excess water content was removed from the homogenized tissue by tissue papers before the tissue was weighed.
(§4) The suspension of homogenized tissue in potassium chloride solution was transferred into a Teflon pestle-glass homogenizer for homogenization for six (6) times. Then, potassium chloride solution was added into the homogenized suspension to bring the volume to about four (4) times of the homogenized suspension. The diluted suspension was 5 transferred into a centrifuge tube and centrifuged at 4° C., 9000 xg, for twenty (20) minutes. The supernatant containing microsomes from skin or liver tissue and other soluble substance were removed and the volume of the supernatant was brought up to four (4) times of the weight of the tissue by adding potassium chloride solution. The diluted supernatant was transferred into a centrifuge tube and centrifuged at 4° C., 100,000 xg, for one (1) hour (Beckman L8-80M). The precipitate containing the microsomes was obtained. Potassium chloride solution was added into the precipitate to bring the volume up to four (4) times of the weight of the tissue, and the suspension was centrifuged at 4° C., 100,000 xg for one (1) hour, to obtain the washed microsomes, which were stored at −78° C. in 0.1M KH2PO4-K2HPO4 buffer (pH=7.4).
(§5) The enzymatic activity of CYP1A was determined based on the activity of 7-ethoxyresorufin-O-deethylase (i.e., for CYP1A) and 7-methoxyresorufin-O-demethylase (i.e., CYP1A2). […] Except for the blank group, the reaction was triggered by adding 0.54 μM NADPH. In the test tube (16×100 mm), the reaction was carried out for ten (10) minutes at constant temperature (37° C.) with vibration and without light Methanol 2.5 ml was added into the reaction mixture to stop the reaction. Protein precipitate was removed from the reaction mixture by centrifuging the reaction mixture at 180 xg for ten (10) minutes. The supernatant was tested for florescent intensity with 550 nm as the excitation wavelength and 585 nm the emission wavelength. The florescent intensity was compared with 0.01 μM-0.1 μM standard Rhodamine B solution to obtain the reading of the CYP1A enzyme activity.

dermal CYP1A = experiment: in vitro; conditions: for inhibitory effect on dermal CYP1A activity, in words: at certain concentration (1, 10 or 100 μM); for enhancing effect on dermal CYP1A activity, in words: at certain concentrations (1, 10 or 100 μM)
Description: (§1) Nude mice were sacrificed by decapitation.
(§2) The precipitate containing the microsomes was obtained.

liver CYP1A [2] = experiment: Liver microsomal CYP1A enzymatic activity, inhibition or enhancement; conditions: at certain concentration (1, 10 or 100 μM)
Description: as §3, §4, §5

CYP1A [3] = experiment: as above; conditions: nude, mouse
Description: as §3, §4, §5

CYP1A [4] = experiment: in vitro; conditions: nude, mouse
Description: as §1, §2

[5] = liver microsomes, pH 7.8, probe 7-ethoxyresorufin
[6] = pH 7.8, dermal CYP1A activity (% of control group)
[7] = pH 7.8, inhibition of dermal CYP1A activity

SMILES | enhancing effect on liver CYP1A activity, in words (liver CYP1A [2]) | inhibitory effect on liver CYP1A activity, in words (liver CYP1A [2]) | activity at 10 min, 1 µM (CYP1A [3]; [5]) [%] | activity at 10 min, 10 µM (CYP1A [3]; [5]) [%] | activity at 10 min, 100 µM (CYP1A [3]; [5]) [%] | activity at 10 min, 1 µM (CYP1A [4]; [6]) [%] | activity at 10 min, 10 µM (CYP1A [4]; [6]) [%] | activity at 10 min, 100 µM (CYP1A [4]; [6]) [%] | inhibitory effect on dermal CYP1A activity, in words (dermal CYP1A) | activity at 10 min, 1 µM (CYP1A [4]; pH 7.8) [%] | activity at 10 min, 10 µM (CYP1A [4]; pH 7.8) [%] | activity at 10 min, 100 µM (CYP1A [4]; pH 7.8) [%] | inhibition at 10 min, 100 µM (CYP1A [4]; pH 7.8) [%] | other results
O=c1cc(-c2ccccc2)oc2c1ccc1ccccc12 [Alpha-NF, α-naphthoflavone] | – | – | – | – | – | – | – | – | – | – | – | – | – | liver CYP1A activity (% of control group) (liver CYP1A [1]; 1 µM): 32.91%; liver CYP1A activity (% of control group) (liver CYP1A [1]; 10 µM): 11.06%; liver CYP1A activity (% of control group) (liver CYP1A [1]; 100 µM): 7.77%; dose dependence of the inhibitory effect on dermal CYP1A (dermal CYP1A): dose-dependent; inhibition of dermal microsomal CYP1A activity (dermal CYP1A): more than 90%; dermal CYP1A activity (% of control group) (dermal CYP1A; 100 µM): 0.83%
CC12CCC(CC1)C(C)(C)O2 [Cineole] | enhancing effect | inhibitory effects | 117 | 99.9 | 94.7 | 199 | 130 | 96.4 | – | – | – | – | – | inhibition at 10 min, 100 µM (CYP1A [4]; [7]): ~5%
O=c1c(-c2ccc(O)cc2)coc2cc(O[C@@H]3O[C@H](CO)[C@@H](O)[C@H](O)[C@H]3O)ccc12 [Daidzin] | enhancing effect | – | 110 | 112 | 111 | – | – | – | inhibition effects | 111 | 84.2 | 70.4 | ~30 | enhancing effect on dermal CYP1A activity, in words (dermal CYP1A): enhancing effects
COc1ccc(-c2cc(=O)c3c(O)cc(O[C@@H]4O[C@H](CO[C@@H]5O[C@@H](C)[C@H](O)[C@@H](O)[C@H]5O)[C@@H](O)[C@H](O)[C@H]4O)cc3o2)cc1O [Diosmin] | enhancing effect | inhibitory effects | 108 | 97.3 | 43.8 | – | – | – | – | 64.3 | 54.3 | 32.9 | ~67 | –
CC(C)[C@@H](C)/C=C/[C@@H](C)[C@H]1CC[C@H]2C3=CC=C4C[C@@H](O)CC[C@]4(C)[C@H]3CC[C@]12C [Ergosterol] | enhancing effect | inhibitory effects | 103 | 104 | 97.7 | – | – | – | – | – | 57.3 | 52.2 | – | –
COc1ccc(-c2coc3cc(O)ccc3c2=O)cc1 [Formononetin] | enhancing effect; also recorded: most enhancing effect | – | 121 | 144 | 145 | 67 | 109 | 85.9 | – | – | – | – | – | inhibition at 10 min, 1 µM (CYP1A [4]; [7]): ~33%
O=c1c(-c2ccc(O)cc2)coc2cc(O)cc(O)c12 [Genistein] | enhancing effect | – | 109 | 108 | 109 | – | – | – | inhibition effects | 77.4 | 60.2 | 35.4 | ~65 | –
CC1(C)[C@@H](O[C@H]2O[C@H](C(=O)O)[C@@H](O)[C@H](O)[C@H]2O[C@@H]2O[C@H](C(=O)O)[C@@H](O)[C@H](O)[C@H]2O)CC[C@]2(C)[C@H]3C(=O)C=C4[C@@H]5C[C@@](C)(C(=O)O)CC[C@]5(C)CC[C@@]4(C)[C@]3(C)CC[C@@H]12 [Glycyrrihizin, Glycyrrhizin] | enhancing effect | inhibitory effects | 118 | 99.9 | 89.1 | – | – | – | – | 98.9 | 102 | 107 | – | –
O=c1c(O[C@@H]2O[C@H](CO)[C@@H](O)[C@H](O)[C@H]2O)c(-c2ccc(O)c(O)c2)oc2cc(O)cc(O)c12 [Isoquercitrin] | enhancing effect | inhibitory effects | 99 | 104 | 95.7 | 112 | 67 | 44.2 | inhibition effects | – | – | – | – | enhancing effect on dermal CYP1A activity, in words (dermal CYP1A): enhancing effects; inhibition at 10 min, 100 µM (CYP1A [4]; [7]): ~56%
O=c1c(O)c(-c2ccc(O)cc2)oc2cc(O)cc(O)c12 [Kaempferol] | – | inhibitory effects; also recorded: most inhibitory effect; also recorded: most effective inhibitors | 100 | 68.9 | 18.1 | ~34 | ~22 | 0 | – | – | – | – | – | inhibition at 10 min, 100 µM (CYP1A [3]; [5]): ~82%; dose dependence of the inhibitory effect on dermal CYP1A (dermal CYP1A): dose-dependent effect; dermal CYP1A activity (% of control group) (dermal CYP1A; nude, mouse, 10 min, 1 µM, pH 7.8): 33.73%; dermal CYP1A activity (% of control group) (dermal CYP1A; nude, mouse, 10 min, 10 µM, pH 7.8): 22.35%; inhibition at 10 min, 100 µM (CYP1A [4]; [7]): > 90%
CCCCCCCCCCCCO [Lauryl alcohol] | enhancing effect | – | 113 | 115 | 101 | – | – | – | – | 88.2 | 97.2 | 52.4 | ~48 | –
CC(Cc1ccc(O)c(O)c1)C(C)Cc1ccc(O)c(O)c1 (stereo not drawn) [Nordihydroguaiaretic acid] | enhancing effect; also recorded: most enhancing effect | – | 140 | 147 | 119 | – | – | – | – | 110 | 96.6 | 59.5 | ~41 | –
CC1(C)CC[C@]2(C(=O)O)CC[C@]3(C)C(=CC[C@@H]4[C@@]5(C)CC[C@H](O)C(C)(C)[C@@H]5CC[C@]43C)[C@@H]2C1 [Oleanolic acid] | – | inhibitory effects | 94 | 99.9 | 87.3 | – | – | – | inhibition effects | – | – | – | – | activity at 10 min, 1 µM (CYP1A [4]; skin (dermal) microsomes, pH 7.8, probe 7-ethoxyresorufin, dermal CYP1A activity (% of control group), compound 1 μM, skin microsomes, mean of at least 3 repeats): 24%; activity at 10 min, 10 µM (CYP1A [4]; skin (dermal) microsomes, pH 7.8, probe 7-ethoxyresorufin, dermal CYP1A activity (% of control group), compound 10 μM, skin microsomes, mean of at least 3 repeats): 25.7%; activity at 10 min, 100 µM (CYP1A [4]; skin (dermal) microsomes, pH 7.8, probe 7-ethoxyresorufin, dermal CYP1A activity (% of control group), compound 100 μM, skin microsomes, mean of at least 3 repeats): 46.7%; inhibition at 10 min, 1 µM (CYP1A [4]; skin (dermal) microsomes, pH 7.8, probe 7-ethoxyresorufin, inhibition of dermal CYP1A activity, compound 1 μM): ~76%
C[C@@]12C[C@@]3(O)O[C@@H](O1)[C@]1(COC(=O)c4ccccc4)[C@H]3C[C@@]12O[C@@H]1O[C@H](CO)[C@@H](O)[C@H](O)[C@H]1O [Paeoniflorin] | enhancing effect | – | 123 | 124 | 121 | 91 | 105 | 104 | – | – | – | – | – | –
O=C(O)c1ccc(O)c(O)c1 [Protocatechuic acid] | enhancing effect | – | 119 | 123 | 107 | 138 | 121 | 102 | – | – | – | – | – | –
O=c1c(O)c(-c2ccc(O)c(O)c2)oc2cc(O)cc(O)c12 [Quercetin] | enhancing effect | inhibitory effects; also recorded: most inhibitory effect; also recorded: most effective inhibitors | 114 | 86.7 | 19.2 | – | – | – | – | 67.9 | 41.9 | 8.37 | ~92 | –
C[C@@H]1O[C@@H](Oc2c(-c3ccc(O)c(O)c3)oc3cc(O)cc(O)c3c2=O)[C@H](O)[C@H](O)[C@H]1O [Quercitrin] | enhancing effect | inhibitory effects | – | 104 | 89.2 | – | – | – | inhibition effects | 87.8 | 77.1 | 75 | ~25 | activity at 10 min, 1 µM (CYP1A [3]; pH 7.8): 109%
C[C@@H]1O[C@@H](OC[C@H]2O[C@@H](Oc3c(-c4ccc(O)c(O)c4)oc4cc(O)cc(O)c4c3=O)[C@H](O)[C@@H](O)[C@@H]2O)[C@H](O)[C@H](O)[C@H]1O [Rutin] | enhancing effect | inhibitory effects | 117 | 124 | 90.7 | 94.1 | 98.4 | 59.2 | inhibition effects | – | – | – | – | enhancing effect on dermal CYP1A activity, in words (dermal CYP1A): enhancing effects; inhibition at 10 min, 100 µM (CYP1A [4]; [7]): ~41%
O=c1ccc2ccc(O)cc2o1 [Umbelliferone] | enhancing effect | – | 120 | 119 | – | – | – | – | – | 72.5 | 52.7 | 75.8 | – | inhibition at 10 min, 10 µM (CYP1A [4]; pH 7.8): ~47%
